Where a SMILES comes first, the peptide text is derived from it. Where no end group is shown, it is not given here. [ ]: non-standard residue; d: D form. Abu = CC[C@H](N)C(=O)O
Tests used:
[1] = molecular target: HLA-A*3101 (Homo sapiens, UniProt P04439, A270S/D185E/E176V/E277Q/F33T/G231S/G80R/H175R/I121M/I218V/I322F/K168Q/L300P/L318F/M331R/P217A/Q94H/R138Q/T323A/T345S/T97I/V358M); type: binding; settings: Table XXIII, HLA-A3 supermotif-bearing peptides
[2] = tested on: A3-supertype alleles (A*0301, A*1101, A*3101, A*3301, A*6801); test: A3-supertype cross-reactive binding; parameters: species or system human; settings: of five A3-supertype alleles tested
[3] = molecular target: HLA-A*6801 (Homo sapiens, UniProt P04439, A269V/D185E/E176V/E277Q/E87N/F33Y/G231S/I121M/I166T/I218V/L180W/L300P/L318F/N151K/P208A/P217A/Q86R/R169H/T345S); type: binding; settings: Table XXIII, HLA-A3 supermotif-bearing peptides
[4] = molecular target: HLA-A*3301 (Homo sapiens, UniProt P04439, A270S/D185E/E176V/E277Q/E87N/F33T/G231S/H175R/I121M/I218V/I322F/K168Q/K210R/L300P/L318F/M331R/P217A/Q86R/Q94H/R138Q/T323A/T345S/T97I/V358M/Y195H); type: binding; settings: Table XXIII, HLA-A3 supermotif-bearing peptides
[5] = molecular target: HLA-A*1101 (Homo sapiens, UniProt P04439, A114D/D185E/E176A/F33Y/L180Q/S129P/T187R); type: binding; settings: Table XXIII, HLA-A3 supermotif-bearing peptides
Chain of HLA-A*1101 (P04439 25-365 limits assumed, stated change not applied): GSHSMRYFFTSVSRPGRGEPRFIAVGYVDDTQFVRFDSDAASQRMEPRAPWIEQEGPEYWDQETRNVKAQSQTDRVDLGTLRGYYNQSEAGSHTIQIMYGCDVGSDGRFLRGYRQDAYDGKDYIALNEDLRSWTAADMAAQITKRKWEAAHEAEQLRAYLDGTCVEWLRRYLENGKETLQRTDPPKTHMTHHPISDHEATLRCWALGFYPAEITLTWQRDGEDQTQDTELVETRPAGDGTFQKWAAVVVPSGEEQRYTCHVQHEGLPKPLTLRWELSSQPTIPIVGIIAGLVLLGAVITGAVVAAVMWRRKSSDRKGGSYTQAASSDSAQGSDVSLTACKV

[6] = molecular target: HLA-A*0301 (Homo sapiens, UniProt P04439); type: binding; settings: Table XXIII, HLA-A3 supermotif-bearing peptides
[7] = tested on: peptide-pulsed target cells and transfected cells endogenously expressing the antigen; test: Recall CTL responses of PBMCs from ovarian cancer patients; type: cell-based, human; settings: for recognition by CTLs from cancer patient PBMCs: two patients with ovarian cancer, peptide-pulsed targets and transfected cells; for CTL Tumor / CTL Wildtype: data from ovarian cancer patients

| Molecule | IC50 [1] | No. of A3 Alleles Crossbound [2] | IC50 [3] | IC50 [4] | IC50 [5] | IC50 [6] | recognition by CTLs from cancer patient PBMCs [7] | CTL Tumor [7] | CTL Wildtype [7] |
| --- | --- | --- | --- | --- | --- | --- | --- | --- | --- |
| AVPLDSTFYK [Her2/neU.997.V2K10] | 1.5 µM | 2 | 0.229 µM | 22.3 µM | 0.033 µM | 0.55 µM |  |  |  |
| CC[C@H](C)[C@H](N)C(=O)N[C@@H](CO)C(=O)N[C@@H](Cc1c[nH]c2ccccc12)C(=O)N[C@@H](CC(C)C)C(=O)NCC(=O)N[C@@H](CC(C)C)C(=O)N[C@@H](CCCNC(=N)N)C(=O)N[C@@H](CO)C(=O)N[C@@H](CC(C)C)C(=O)N[C@@H](CCCNC(=N)N)C(=O)O [Her2/neu.450] | 0.0069 µM | 4 | 0.073 µM | 0.223 µM | 2.22 µM | 0.268 µM |  |  |  |
| CC[C@H](C)[C@H](N)C(=O)N[C@H](C(=O)N[C@@H](Cc1c[nH]c2ccccc12)C(=O)N[C@@H](CC(C)C)C(=O)NCC(=O)N[C@@H](CC(C)C)C(=O)N[C@@H](CCCNC(=N)N)C(=O)N[C@@H](CO)C(=O)N[C@@H](CC(C)C)C(=O)N[C@@H](CCCCN)C(=O)O)C(C)C [Her2/neu.450.V2K10] | 0.273 µM | 4 | 0.012 µM | 2.07 µM | 0.128 µM | 0.0039 µM |  |  |  |
| CC[C@H](NC(=O)CNC(=O)CNC(=O)[C@H](C)NC(=O)[C@H](CC)NC(=O)[C@@H](NC(=O)[C@@H](N)[C@@H](C)O)C(C)C)C(=O)N[C@@H](C)C(=O)N[C@@H](CCCNC(=N)N)C(=O)O [Her2/neu.218.B3B7] (H-TV[Abu]AGG[Abu]AR-OH) | 0.247 µM | 5 | 0.008 µM | 0.242 µM | 0.111 µM | 0.314 µM |  |  |  |
| CC[C@H](NC(=O)CNC(=O)CNC(=O)[C@H](C)NC(=O)[C@H](CC)NC(=O)[C@@H](NC(=O)[C@@H](N)[C@@H](C)O)C(C)C)C(=O)N[C@@H](C)C(=O)N[C@@H](CCCCN)C(=O)O [Her2/neu.218.B3B7K9] (H-TV[Abu]AGG[Abu]AK-OH) | > 10 µM | 3 | 0.0073 µM | > 10 µM | 0.029 µM | 0.024 µM |  |  |  |
| CC[C@H](C)[C@H](N)C(=O)N[C@@H](CC(C)C)C(=O)N[C@@H](Cc1c[nH]cn1)C(=O)N[C@@H](CC(N)=O)C(=O)NCC(=O)N[C@@H](C)C(=O)N[C@@H](Cc1ccc(O)cc1)C(=O)N[C@@H](CO)C(=O)N[C@@H](CC(C)C)C(=O)O [Her2/neu.435] |  |  |  |  |  |  | recognized in 2 donors |  |  |
| CC[C@H](C)[C@H](NC(=O)CNC(=O)[C@H](Cc1ccccc1)NC(=O)[C@@H](NC(=O)[C@@H](NC(=O)CNC(=O)[C@H](CC(C)C)NC(=O)[C@@H](NC(=O)[C@@H](N)C(C)C)C(C)C)C(C)C)C(C)C)C(=O)O [Her2/neu.665] |  |  |  |  |  |  | recognized by CTLs from only one of the two patients |  |  |
| CC(C)C[C@H](NC(=O)[C@H](CCC(N)=O)NC(=O)[C@@H](NC(=O)[C@@H](NC(=O)[C@H](CO)NC(=O)[C@@H](NC(=O)[C@H](CC(C)C)NC(=O)[C@@H](N)CS)[C@@H](C)O)[C@@H](C)O)C(C)C)C(=O)N[C@H](C(=O)O)C(C)C [Her2/neu.789] |  |  |  |  |  |  | recognized peptide-pulsed targets only |  |  |
| CC(C)C[C@H](NC(=O)[C@H](CCC(N)=O)NC(=O)[C@H](CC(=O)O)NC(=O)[C@H](Cc1c[nH]c2ccccc12)NC(=O)[C@@H]1CCCN1C(=O)[C@@H](NC(=O)[C@@H](NC(=O)[C@@H](N)Cc1c[nH]cn1)C(C)C)C(C)C)C(=O)N[C@@H](Cc1ccccc1)C(=O)N[C@@H](CCCCN)C(=O)O [Her2/neu.478.V2K10] | > 10 µM | 3 | 0.0089 µM | > 10 µM | 0.375 µM | 0.18 µM |  |  |  |
| CC(C)C[C@H](NC(=O)[C@@H](N)Cc1c[nH]cn1)C(=O)N[C@@H](Cc1ccc(O)cc1)C(=O)N[C@@H](CCC(N)=O)C(=O)NCC(=O)N[C@@H](CS)C(=O)N[C@@H](CCC(N)=O)C(=O)N[C@H](C(=O)N[C@H](C(=O)O)C(C)C)C(C)C |  |  |  |  |  |  |  | 1/2 | 2/2 |
| CC(C)[C@H](NC(=O)[C@@H](N)[C@@H](C)O)C(=O)N[C@@H](CS)C(=O)N[C@@H](C)C(=O)NCC(=O)NCC(=O)N[C@@H](CS)C(=O)N[C@@H](C)C(=O)N[C@@H](CCCNC(=N)N)C(=O)O [Her2/neu.218] | 0.129 µM | 4 | 0.083 µM | 0.326 µM | 0.261 µM | > 10 µM |  |  |  |
| CSCC[C@H](NC(=O)[C@@H](N)C(C)C)C(=O)N[C@@H](C)C(=O)NCC(=O)N[C@H](C(=O)NCC(=O)N[C@@H](CO)C(=O)N1CCC[C@H]1C(=O)N[C@@H](Cc1ccc(O)cc1)C(=O)N[C@H](C(=O)O)C(C)C)C(C)C [Her2/neu.773] |  |  |  |  |  |  | recognized by CTLs from only one of the two patients |  |  |
| CC(C)C[C@H](NC(=O)[C@@H](N)Cc1c[nH]cn1)C(=O)N[C@@H](Cc1ccc(O)cc1)C(=O)N[C@@H](CCC(N)=O)C(=O)NCC(=O)N[C@@H](CS)C(=O)N[C@@H](CCC(N)=O)C(=O)N[C@H](C(=O)N[C@H](C(=O)O)C(C)C)C(C)C [Her2/neu.48] |  |  |  |  |  |  | recognized in 2 donors |  |  |
| CC[C@H](C)[C@H](N)C(=O)N[C@H](C(=O)N[C@@H](Cc1c[nH]c2ccccc12)C(=O)N[C@@H](CC(C)C)C(=O)NCC(=O)N[C@@H](CC(C)C)C(=O)N[C@@H](CCCNC(=N)N)C(=O)N[C@@H](CO)C(=O)N[C@@H](CC(C)C)C(=O)N[C@@H](CCCNC(=N)N)C(=O)O)C(C)C [Her2/neu.450.V2] | 0.011 µM | 4 | 0.0073 µM | 0.193 µM |  | 0.234 µM |  |  |  |
| CC[C@H](C)[C@H](N)C(=O)N[C@@H](CC(C)C)C(=O)N[C@@H](Cc1c[nH]cn1)C(=O)N[C@@H](CC(N)=O)C(=O)NCC(=O)N[C@@H](C)C(=O)N[C@@H](Cc1ccc(O)cc1)C(=O)N[C@@H](CO)C(=O)N[C@@H](CC(C)C)C(=O)O |  |  |  |  |  |  |  | 2/2 | 2/2 |

Continued, in another order:

| IC50 [1] | No. of A3 Alleles Crossbound [2] | IC50 [3] | IC50 [4] | IC50 [5] | IC50 [6] | Molecule | recognition by CTLs from cancer patient PBMCs [7] | CTL Tumor [7] | CTL Wildtype [7] |
| --- | --- | --- | --- | --- | --- | --- | --- | --- | --- |
| 0.06 µM | 4 | 0.015 µM | 4.27 µM | 0.022 µM | 0.034 µM | CC[C@H](NC(=O)[C@H](CC(N)=O)NC(=O)[C@@H](NC(=O)[C@@H](N)CC)C(C)C)C(=O)N[C@@H](CO)C(=O)N[C@@H](CCC(N)=O)C(=O)N[C@@H](Cc1ccccc1)C(=O)N[C@@H](CC(C)C)C(=O)N[C@@H](CCCCN)C(=O)O [Her2/neu.528.B1B4K9] (H-[Abu]VN[Abu]SQFLK-OH) |  |  |  |
| 0.034 µM | 4 | 0.018 µM | 0.05 µM | 0.194 µM | 7.33 µM | CC(C)C[C@H](NC(=O)[C@H](Cc1ccccc1)NC(=O)[C@H](CCC(N)=O)NC(=O)[C@H](CO)NC(=O)[C@H](CS)NC(=O)[C@H](CC(N)=O)NC(=O)[C@@H](NC(=O)[C@@H](N)CS)C(C)C)C(=O)N[C@@H](CCCNC(=N)N)C(=O)O [Her2/neu.528] |  |  |  |
| 0.019 µM | 4 | 0.004 µM | 0.088 µM | 0.083 µM | 3.14 µM | CC(C)C[C@H](NC(=O)[C@H](CCC(N)=O)NC(=O)[C@H](CC(=O)O)NC(=O)[C@H](Cc1c[nH]c2ccccc12)NC(=O)[C@@H]1CCCN1C(=O)[C@@H](NC(=O)[C@@H](NC(=O)[C@@H](N)Cc1c[nH]cn1)[C@@H](C)O)C(C)C)C(=O)N[C@@H](Cc1ccccc1)C(=O)N[C@@H](CCCNC(=N)N)C(=O)O [Her2/neu.478] |  |  |  |
| 30 µM | 2 | 0.073 µM | 2.64 µM | 0.088 µM |  | CC(C)C[C@H](NC(=O)[C@@H]1CCCN1C(=O)[C@@H](NC(=O)[C@H](C)N)C(C)C)C(=O)N[C@@H](CC(=O)O)C(=O)N[C@@H](CO)C(=O)N[C@H](C(=O)N[C@@H](Cc1ccccc1)C(=O)N[C@@H](Cc1ccc(O)cc1)C(=O)N[C@@H](CCCNC(=N)N)C(=O)O)[C@@H](C)O [Her2/neu.997.V2] |  |  |  |
|  | 3 | 0.0036 µM | 0.193 µM | 1.33 µM | 7.33 µM | HVVPWDQLFR [Her2/neu.478.V2] |  |  |  |
| 0.198 µM | 3 | 0.05 µM | 0.107 µM | > 10 µM | 7.86 µM | LVKSPNHVR [Her2/neu.852.R9] |  |  |  |
| 0.038 µM | 5 | 0.01 µM | 0.058 µM | 0.08 µM | 0.177 µM | CC[C@H](NC(=O)[C@H](CC(N)=O)NC(=O)[C@@H](NC(=O)[C@@H](N)CC)C(C)C)C(=O)N[C@@H](CO)C(=O)N[C@@H](CCC(N)=O)C(=O)N[C@@H](Cc1ccccc1)C(=O)N[C@@H](CC(C)C)C(=O)N[C@@H](CCCNC(=N)N)C(=O)O [Her2/neu.528.B1B4] (H-[Abu]VN[Abu]SQFLR-OH) |  |  |  |
